Source: patent publication US12281334B2, “Multi donor stem cell compositions and methods of making same” (Children's Hospital Medical Center, priority 2017, dated 2025)
“Also recorded” adds a separate entry of the source.

Assays:
[1] = system: pooled iPSCs (two fluorescently labeled donors and one puromycin resistant donor); experiment: Donor ratio change by drug selection monitored by eDNA (drop out assay); format: cell-based, human; conditions: puromycin containing media; fluorescence imaging and eDNA donor identification PCR
From the text: FIG. 22. Donor ratio change monitored by gDNA in the culture medium. To confirm the eDNA donor identification, Applicant monitored cell ratio change by drug selection. Two types of fluorescently labeled cells and puromycin resistant cells were used as a positive control.
(§1) In one aspect, a “Drop out assay” is disclosed. In this aspect, genomic DNA in environments (environmental DNA, or “eDNA”), a form of cell-free DNA (cfDNA), exists in the environment to determine biodiversity such as sea and soil. Detection of circulating tumor derived cfDNA is an evolving component of cancer precision medicine. […] Remarkably, when applied into pooled stem cell culture, quantitative detection of respective donor correlates with the cell ratio in culture. Therefore, Applicant concluded eDNA-based noninvasive donor identification method is effective decoding strategy for pooled stem cell culture by eDNA in culture supernatant. PCR of eDNA in culture supernatant can be carried out using donor-specific SNP primers. Each SNP primer may be standardized, and the donor ratio of the iPSC pool can be estimated using eDNA contained in the culture supernatant (see FIG. 19). As a result, the cell ratio may be successfully determined by PCR of eDNA in the medium (see FIG. 20). […] In order to confirm the sensitivity of eDNA donor identification, Applicant monitored cell ratio change by drug selection. […]

[2] = system: fat-treated hepatocytes prepared from 11 iPSCs pool; experiment: Drop-out assay using induced hepatocytes treated with oleic acid and troglitazone; format: cell-based, human; conditions: eDNA based drop-out assay; oleic acid treated hepatocyte pool from eleven donors
Procedure: FIG. 23. Drop-out assay using induced hepatocytes treated with oleic acid and troglitazone. Drug screening assays for fat accumulation and drug treatment were performed using hepatocytes prepared from iPSC pools.
as §1

Row | SMILES | fate of non-resistant iPSCs under drug selection [1] | sensitivity to drug induced hepatotoxicity, high fat accumulation risk donor cells vs healthy donor derived cells [2]
1 | COc1ccc(C[C@H](N)C(=O)N[C@H]2[C@@H](O)[C@H](n3cnc4c(N(C)C)ncnc43)O[C@@H]2CO)cc1 [puromycin] | non-resistant iPSCs were disappeared on the second day of treatment; also recorded: two other donors died due to puromycin toxicity | 
2 | Cc1c(C)c2c(c(C)c1O)CCC(C)(COc1ccc(CC3SC(=O)NC3=O)cc1)O2 (centres unmarked) [troglitazone] |  | significantly more sensitive
